Results on one compound are retold here after patent publication US10682320B2, “Method for inhibiting osteoclast development” (West Virginia University, priority 2012, dated 2020).

For data set [1] the following is noted: cited from earlier work.
The test system of data set [2] is store-operated Ca2+ entry (SOCe). As to the kind of experiment: Store-operated Ca2+ entry (SOCe) in human osteoclasts. The format is cell-based. Conditions: n=3; data not shown. Here is the method:
Human monocytes were isolated from normal buffy coat cells (60-80 ml) obtained with approval of institutional review boards by separation from donor blood, the white-cell depleted blood retained for clinical use. Human monocyte culture and differentiation were as reported (see, Yaroslayskly B B, Zhang Y, Kalla S E, Garcia P V, Sharrow A C, Li Y, Zaidi M, Wu C, Blair H C, “NO-dependent osteoclast motility: Reliance on cGMP-dependent protein kinase I and VASP”, J Cell Sci I, Vol. 18, pages 5479-5487, 2005). […]
Ratiometric imaging of intracellular Ca^2+ using fura-2 was as described (see, Zhou et al., 2009 above). […] Ca^2+ measurements were made using a Leica DMI 6000B fluorescence microscope controlled by Slidebook Software. Fluorescence emission at 505 nm was monitored while alternating between 340 and 380 nm excitation wavelengths at a frequency of 0.67 Hz; intracellular Ca^2+ measurements are shown as 340/380 nm emission ratios obtained from groups (35-45) of single cells. […]
The haloanilide DCPA blocks store-operated Ca^2+ channel function in Jurkat cells with no effect on ER Ca^2+ content. […] To address this, the present inventor examined HEK293 cells stably expressing Orai I and transiently transfected with YFP-STIMI and measured the effect of DCPA on CRAC current or Icrac. […]

The next data set concerns the target CRAC channel (Homo sapiens, UniProt Q13586). As to the kind of experiment: CRAC channel activity by Fura-2 fluorescence in Jurkat cells after thapsigargin. The format is cell-based. The arrangement: endogenous in cells; host or cells: Jurkat cells. The protocol:
Ratiometric imaging of intracellular Ca^2+ using fura-2 was as described (see, Zhou et al., 2009 above). Briefly, cells on coverslips, in cation safe solution (107 mM NaCl, 7.2 mM KCl, 1.2 mM MgCl2, 11.5 mM glucose, 20 mM HEPES-NaOH, pH 7.2) were loaded with fura-2 acetoxymethyl ester (2 μM) for 30 min at 24° C. Cells were washed and fluorescent probe was allowed to de-esterify for 30 min. From signal remaining after saponin permeabilization, ˜85% of the dye was confined to the cytoplasm (see, Ma H-T, Patterson R L. van Rossum D B. Birnbaumer L, Mikoshiba K, Gill D L, “Requirement of the inositol trisphosphate receptor for activation of store-operated Ca^2+ channels”, Science, Vol. 287, pages 1647-1651, 2000). Ca^2+ measurements were made using a Leica DMI 6000B fluorescence microscope controlled by Slidebook Software. Fluorescence emission at 505 nm was monitored while alternating between 340 and 380 nm excitation wavelengths at a frequency of 0.67 Hz; intracellular Ca^2+ measurements are shown as 340/380 nm emission ratios obtained from groups (35-45) of single cells. Measurements shown are representative a minimum of three independent experiments.
N-(3,4-dibromophenyl)propanamide]. Jurkat cells, a T cell line that is very sensitive to DCPA, was cultured with the indicated compounds, DCPA, DBPA, and ethanol (EtOH). CRAC channel activity was monitored using Fura-2 fluorescence using standard known techniques. Cells were incubated in each composition at 100 uM for 10 minutes prior to addition of the SERCA inhibitor thapsigargin (Tg) to induce SOCe. Decreased CRAC channel activity is clearly evident with DCPA and DBPA.
Jurkat cells, a T cell line that is very sensitive to DCPA, was cultured with the indicated compositions of the present invention, namely, DNI, NM Propanil, and DNMNI. CRAC channel activity was monitored using Fura-2 fluorescence using standard known techniques. Cells were incubated in each composition at 100 uM for 10 minutes prior to addition of the SERCA inhibitor thapsigargin (Tg) to induce SOCe. Decreased CRAC channel activity is clearly evident with each of the compositions of the present invention. […] Each of the compositions of this invention achieve the results achieved with the known DCPA but without the burden of toxicity of DCPA that would accompany further metabolism of DCPA.

CRAC channel, sequence (Q13586 23-685): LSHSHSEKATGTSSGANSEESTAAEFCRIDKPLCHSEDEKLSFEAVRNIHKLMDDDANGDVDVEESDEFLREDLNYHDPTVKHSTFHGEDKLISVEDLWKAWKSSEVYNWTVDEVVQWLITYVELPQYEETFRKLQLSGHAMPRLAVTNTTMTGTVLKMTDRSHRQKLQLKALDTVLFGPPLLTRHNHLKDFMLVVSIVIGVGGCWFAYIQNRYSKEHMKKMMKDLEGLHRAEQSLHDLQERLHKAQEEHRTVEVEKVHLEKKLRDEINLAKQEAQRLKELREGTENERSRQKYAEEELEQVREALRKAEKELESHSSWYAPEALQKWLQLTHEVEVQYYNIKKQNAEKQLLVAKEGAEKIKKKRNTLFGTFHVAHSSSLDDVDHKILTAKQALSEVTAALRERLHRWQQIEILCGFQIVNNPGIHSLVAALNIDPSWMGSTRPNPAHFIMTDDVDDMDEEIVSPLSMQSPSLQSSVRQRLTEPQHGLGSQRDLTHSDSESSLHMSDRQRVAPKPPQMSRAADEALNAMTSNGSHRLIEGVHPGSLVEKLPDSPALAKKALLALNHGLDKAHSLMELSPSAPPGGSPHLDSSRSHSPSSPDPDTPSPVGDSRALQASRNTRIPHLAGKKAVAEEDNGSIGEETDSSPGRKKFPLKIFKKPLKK

As for `CCC(=O)Nc1ccc(Cl)c(Cl)c1` [DCPA, N-(3,4-dichlorophenyl)propanamide], the “doses mice can tolerate” value in data set [1] is > 100 mg/kg. In data set [1] (mice), the “doses producing frank immunotoxicity” value is reported as > 150 mg/kg. The “reduction of SOCe in osteoclasts” value in data set [2] is reported as 27.5%. Besides, at CRAC channel, the “effect on ER Ca2+ content” value is “no effect” and the “store-operated Ca2+ channel function” value is recorded as “blocks”. In addition, the CRAC channel activity entry at CRAC channel (100 uM, 10 minutes before thapsigargin) is given as “Decreased”.
